Target: T1, activated JNK3 (Homo sapiens, UniProt P53779)
T1 construct: One such construct encodes amino acid residues Ser40-Glu402 of JNK3α1 and is preceded by Met and Gly residues; Met-Gly (initiation Met plus Gly added to create the NcoI site) (N); made in house; host or cells: E. coli BL21 (DE3)
Test: JNK3 inhibition, spectrophotometric coupled-enzyme assay
Format: biochemical
Details: read-out: Activity in the JNK3 Inhibition Assay (Ki rating)
From the text: A BLAST search of the EST database using the published JNK3α1 cDNA as a query identified an EST clone (#632588) that contained the entire coding sequence for human JNK3α1. Polymerase chain reactions (PCR) using pfu polymerase (Strategene) were used to introduce restriction sites into the cDNA for cloning into the pET-15B expression vector at the NcoI and BamHI sites. The protein was expressed in E. coli. […] This truncation corresponds to Ser 2 of JNK1 and JNK2 proteins, and is preceded by a methionine (initiation) and a glycine residue. The glycine residue was added in order to introduce an NcoI site for cloning into the expression vector. In addition, systematic C-terminal truncations were performed by PCR to identify a construct that give rise to diffraction-quality crystals.
5 mg of JNK3 was diluted to 0.5 mg/ml in 50 mM HEPES buffer, pH 7.5, containing 100 mM NaCl, 5 mM DTT, 20 mM MgCl2 and 1 mM ATP. GST-MKK7(DD) was added at a molar ratio of 1:2.5 GST-MKK7:JNK3. After incubation for 30 minutes at 25° C., the reaction mixture was concentrated 5-fold by ultrafiltration in a Centriprep-30 (Amicon, Beverly, Mass.), diluted to 10 ml and an additional 1 mM ATP added. This procedure was repeated three times to remove ADP and replenish ATP. The final addition of ATP was 5 mM and the mixture incubated overnight at 4° C.
The activated JNK3/GST-MKK7(DD) reaction mixture was exchanged into 50 mM HEPES buffer, pH 7.5, containing 5 mM DTT and 5% glycerol (w/v) by dialysis or ultrafiltration. The reaction mixture was adjusted to 1.1 M potassium phosphate, pH 7.5, and purified by hydrophobic interaction chromatography (at 25° C.) using a Rainin Hydropore column. […] Activated JNK3 (i.e. doubly phosphorylated JNK3) was stored at −70° C. at 0.25-1 mg/ml.
Compounds were assayed for the inhibition of JNK3 by a spectrophotometric coupled-enzyme assay. In this assay, a fixed concentration of activated JNK3 (10 nM) was incubated with various concentrations of a potential inhibitor dissolved in DMSO for 10 minutes at 30° C. in a buffer containing 0.1 M HEPES buffer, pH 7.5, containing 10 mM MgCl2, 2.5 mM phosphoenolpyruvate, 200 μM NADH, 150 μg/mL pyruvate kinase, 50 μg/mL lactate dehydrogenase, and 200 μM EGF receptor peptide. […] The reaction was initiated by the addition of 10 μM ATP and the assay plate is inserted into the spectrophotometer's assay plate compartment that was maintained at 30° C. The decrease of absorbance at 340 nm was monitored as a function of time. The rate data as a function of inhibitor concentration was fitted to competitive inhibition kinetic model to determine the Ki.

T1 sequence (P53779 40-402): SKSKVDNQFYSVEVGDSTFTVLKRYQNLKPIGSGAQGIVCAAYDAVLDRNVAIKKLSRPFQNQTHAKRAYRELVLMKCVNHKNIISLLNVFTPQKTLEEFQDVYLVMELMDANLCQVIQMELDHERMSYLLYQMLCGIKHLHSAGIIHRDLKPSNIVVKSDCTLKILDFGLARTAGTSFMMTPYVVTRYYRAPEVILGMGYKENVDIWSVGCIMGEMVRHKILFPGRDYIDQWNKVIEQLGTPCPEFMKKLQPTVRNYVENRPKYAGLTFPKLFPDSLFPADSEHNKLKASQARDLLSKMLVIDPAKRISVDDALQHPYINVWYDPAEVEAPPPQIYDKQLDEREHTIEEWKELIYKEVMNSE

| Structure (SMILES) | Ki [nM] |
| --- | --- |
| Cc1onc(-c2ccccc2)c1-c1ccnc(Nc2cccc(CO)c2)c1 [IIA-134] | < 100 |
| Cc1onc(-c2ccccc2)c1-c1ccnc(Nc2cccc(CCC(=O)N[C@@H](C(=O)OC(C)(C)C)C(C)C)c2)c1 [IIA-135] | 100 to 1000 |
| Cc1onc(-c2ccccc2)c1-c1ccnc(Nc2ccc3ccccc3c2)n1 [IIAA-4] | 100 to 1000 |
| COc1ccc2cc(Nc3nccc(-c4c(-c5ccccc5)noc4C)n3)ccc2c1 [IIAA-10] | < 100 |
| Cc1onc(-c2ccccc2)c1-c1ccnc(Nc2ccc3c(c2)CCC3=O)n1 [IIAA-11] | < 100 |
| Cc1ccnc(Nc2nccc(-c3c(-c4ccccc4)noc3C)n2)c1 [IIAA-12] | < 100 |
| Cc1onc(-c2ccccc2)c1-c1ccnc(Nc2cccc3ccccc23)n1 [IIAA-13] | < 100 |
| COc1ccc2cc(Nc3nccc(-c4c(-c5c(F)cccc5F)noc4C)n3)ccc2c1 [IIAA-14] | < 100 |
| Cc1ccc2ccccc2c1Nc1nccc(-c2c(-c3ccccc3)noc2C)n1 [IIAA-15] | 100 to 1000 |
| COC(=O)c1ccc2cc(Nc3nccc(-c4c(-c5ccccc5)noc4C)n3)ccc2c1 [IIAA-16] | < 100 |
| COc1ccc2ccccc2c1Nc1nccc(-c2c(-c3ccccc3)noc2C)n1 [IIAA-17] | > 1000 |
| COCc1ccc2ccccc2c1Nc1nccc(-c2c(-c3ccccc3)noc2C)n1 [IIAA-18] | 100 to 1000 |
| COc1ccc2cc(Nc3nccc(-c4c(-c5ccccc5C)noc4C)n3)ccc2c1 [IIAA-19] | < 100 |
| Cc1ccc2cc(Nc3nccc(-c4c(-c5ccccc5C)noc4C)n3)ccc2n1 [IIAA-20] | 100 to 1000 |
| Cc1ccc2cc(Nc3nccc(-c4c(-c5cccc([N+](=O)[O-])c5)noc4C)n3)ccc2n1 [IIAA-22] | 100 to 1000 |
| Cc1ccc2cc(Nc3nccc(-c4c(-c5cccc(C#N)c5)noc4C)n3)ccc2n1 [IIAA-23] | 100 to 1000 |
| Cc1onc(-c2ccccc2)c1-c1ccnc(NC2CCCCC2)n1 [IIAA-24] | < 100 |
| Cc1onc(-c2ccccc2)c1-c1ccnc(NC2Cc3ccccc3C2)n1 [IIAA-25] | < 100 |
| Cc1onc(-c2ccccc2)c1-c1ccnc(NC2CCN(Cc3ccccc3)CC2)n1 [IIAA-27] | 100 to 1000 |

| Structure (SMILES) | Ki [nM] |
| --- | --- |
| Cc1onc(-c2ccccc2)c1-c1ccnc(NCC2CCCO2)n1 (stereo not shown) [IIAA-29] | 100 to 1000 |
| CCOC(=O)N1CCC(Nc2nccc(-c3c(-c4ccccc4)noc3C)n2)CC1 [IIAA-31] | < 100 |
| Cc1onc(-c2ccccc2)c1-c1ccnc(NC2CCNCC2)n1 [IIAA-32] | 100 to 1000 |
| Cc1onc(-c2ccccc2)c1-c1ccnc(N[C@H]2CC[C@H](O)CC2)n1 [IIAA-36] | < 100 |
| Cc1onc(-c2ccccc2)c1-c1ccnc(NC2CCC(=O)CC2)n1 [IIAA-38] | < 100 |
| Cc1onc(-c2ccccc2)c1-c1ccnc(NC(=O)c2ccccc2)n1 [IIIA-1] | 100 to 1000 |
| Cc1onc(-c2ccccc2)c1-c1ccnc(NC(=O)c2ccccc2Br)n1 [IIIA-2] | > 1000 |
| Cc1onc(-c2ccccc2)c1-c1ccnc(NC(=O)c2ccccc2F)n1 [IIIA-3] | 100 to 1000 |
| Cc1onc(-c2ccccc2)c1-c1ccnc(NC(=O)c2ccccc2Cl)n1 [IIIA-4] | > 1000 |
| Cc1ccccc1C(=O)Nc1nccc(-c2c(-c3ccccc3)noc2C)n1 [IIIA-5] | > 1000 |
| Cc1cccc(C(=O)Nc2nccc(-c3c(-c4ccccc4)noc3C)n2)c1 [IIIA-6] | 100 to 1000 |
| COc1ccc(C(=O)Nc2nccc(-c3c(-c4ccccc4)noc3C)n2)cc1 [IIIA-7] | 100 to 1000 |
| COc1ccc(C(=O)Nc2nccc(-c3c(-c4ccccc4)noc3C)n2)cc1OC [IIIA-8] | 100 to 1000 |
| COc1ccc(C(=O)Nc2nccc(-c3c(-c4ccccc4)noc3C)n2)c(OC)c1 [IIIA-9] | > 1000 |
| COc1cccc(OC)c1C(=O)Nc1nccc(-c2c(-c3ccccc3)noc2C)n1 [IIIA-10] | > 1000 |
| Cc1onc(-c2ccccc2)c1-c1ccnc(NC(=O)c2ccc(C#N)cc2)n1 [IIIA-11] | 100 to 1000 |
| Cc1onc(-c2ccccc2)c1-c1ccnc(NC(=O)c2ccc(F)cc2)n1 [IIIA-14] | 100 to 1000 |
| Cc1onc(-c2ccccc2)c1-c1ccnc(NC(=O)c2cccs2)n1 [IIIA-15] | < 100 |

Source: patent publication US6693108B2, “Inhibitors of c-JUN N terminal kinases (JNK) and other protein kinases” (Vertex Pharmaceuticals Incorporated, priority 1999, dated 2004)
